From US10253010B2, “C-glycoside derivative” (SIHUAN PHARMACEUTICAL HOLDINGS GROUP LTD., priority 2011, dated 2019)
Like-named read-outs stand apart in the source and are kept apart here.

How the values were obtained:
[1] = Rat in vivo pharmacokinetic assay (IV and PO); design: species or system SD rats; settings: plasma, male SD rat; for half-life: read-out: T1/2 (half-life) (converted); for bioavailability: PO 5 mg/kg versus IV 2 mg/kg, read-out: F % (absolute bioavailability)
Description: Rat In Vivo Pharmacokinetic Assay for the Present Compounds
Assay animals: 6-8 weeks aged male SD rats (purchased from Vital River Laboratories), 6 rats per compound, weighing 220-250 g.
Dissolved in an appropriate solvent (5% DMSO+95% (6% HP-β-CD solution)).
Administration: See Table 2
Blood collection: each of about 100 μL whole blood were collected at 0 h, 0.083 h, 0.25 h, 0.5 h, 1 h, 2 h, 4 h, 6 h, 8 h and 24 h. The collected blood samples were centrifuged at 4° C. at 8000 rpm in a low temperature high-speed centrifuge (5415R, Eppendorf) for 6 mins to separate the blood plasm. The separated plasm was preserved at −80° C. in a refrigerator.
20 μL of the plasm was carefully taken out, to which was added 200 μL acetonitrile solution (containing internal standard KBP-1204 50 ng/ml). The plasm was subjected to a vortex at 1500 rpm for 3 mins, and then centrifuged at 12000 rpm for 5 mins. The supernatant was taken and was analyzed with LC-MS/MS (API4000, Applied Biosystems). Equation Absolute bioavailability F %=[AUC]INF(PO)*Dose(IV)/[AUC]INF(IV)*Dose(PO)

[2] = Urine glucose assay in normal rats; type: in vivo, Sprague-Dawley rats; settings: normal male SD rats, 10 mg/Kg oral, glucose 5 g/kg, 24 h urine; for Urine glucose mass: standardized to 200 g body weight
Description: SPF-grade male Sprague-Dawley rats, 6-weeks aged, were used in this urine glucose assay. After the rats were fasted for 15 h, the rats were divided randomly into a blank control group, a model group, a positive drug group and a test drug group according to their body weights. The rats were put into metabolic cages where water was available but food was unavailable. The urines in this 24 hours were collected. Then, the drugs were orally administered (10 mg/Kg) and then the glucose was fed (5 g/kg) to the animals. Then the animals were put into metabolic cages. The rats were supplemented with food one hour after the drug administration and the glucose feeding, and then could freely contact the diets. The urines in this 24 hours were collected and recorded. The collected urines were centrifuged at 3000 rpm for 15 mins. The residues were removed. The supernatants were taken and the urine glucose contents therein were measured.
The urine glucose contents were standardized based on the body weight of 200 g. The data were expressed in average±standard deviation. The resulting values were analyzed with one-way ANOVA, and the comparisons between groups were conducted with one-way ANOVA and Dunnett test, where p<0.05 was considered to have a statistical significance.

human SGLT1 = target: T1, human SGLT1 (Homo sapiens, UniProt P13866); assay: Inhibition of sodium dependent [14C]-AMG uptake in CHO cells stably expressing human SGLT1; type: cell-based; settings: CHO cells expressing human SGLT1, [14C]-AMG uptake
T1 sequence (P13866 1-664): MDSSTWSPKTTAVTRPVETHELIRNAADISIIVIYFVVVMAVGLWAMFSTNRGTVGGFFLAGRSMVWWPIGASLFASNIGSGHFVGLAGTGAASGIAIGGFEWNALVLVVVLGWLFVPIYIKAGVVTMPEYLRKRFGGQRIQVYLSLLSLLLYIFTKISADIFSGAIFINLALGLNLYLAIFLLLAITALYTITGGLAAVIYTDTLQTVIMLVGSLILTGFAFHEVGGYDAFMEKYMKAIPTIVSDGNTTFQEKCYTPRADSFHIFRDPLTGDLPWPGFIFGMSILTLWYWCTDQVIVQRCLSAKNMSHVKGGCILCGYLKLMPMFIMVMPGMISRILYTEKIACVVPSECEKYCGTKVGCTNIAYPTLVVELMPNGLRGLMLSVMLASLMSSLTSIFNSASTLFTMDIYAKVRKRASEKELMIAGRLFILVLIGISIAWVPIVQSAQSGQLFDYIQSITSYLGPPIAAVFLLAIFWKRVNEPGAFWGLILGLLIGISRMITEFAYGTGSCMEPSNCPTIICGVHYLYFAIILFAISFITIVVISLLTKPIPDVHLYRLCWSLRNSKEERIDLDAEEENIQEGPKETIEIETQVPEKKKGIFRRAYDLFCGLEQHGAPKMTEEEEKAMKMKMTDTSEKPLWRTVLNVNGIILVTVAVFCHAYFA
Description: (§1) In the in vitro evaluation method according to the present invention, the human SGLT2 and SGLT1 sequences were transfected to Chinese hamster ovary cells to express stably. By measuring inhibition of the sodium dependent adsorption of [^14C]-labeled […]-D-glucopyranoside (AMG) into the cells, the half-inhibition concentration IC50 was determined.
(§2) Buffer A (KRH-Na+): 120 mM NaCl, 4.7 mM KCl, 1.2 mM MgCl2, 2.2 mM CaCl2, 10 mM HEPES (PH 7.4 with 1 mM Tris).
(§3) Buffer A− (KRH-NMG): 120 mM NMG, 4.7 mM KCl, 1.2 mM MgCl2, 2.2 mM CaCl2, 10 mM HEPES (PH 7.4 with 1 mM Tris).
(§4) Buffer D: 120 mM NaCl, 4.7 mM KCl, 1.2 mM MgCl2, 2.2 mM CaCl2, 10 mM HEPES, 0.5 mM phlorizin (PH 7.4 with 1 mM Tris).
(§5) Assay method: Human SGLT2 and SGLT1 sequences were stably expressed in the CHO cells. The cell culture was conducted in a 96-well plate for 12 hr. The plate was washed with KRH-Na+ (Buffer A) or KRH-NMG (Buffer A−) buffering solution for three times, 200 μL/well. Then the plate was washed with a buffering solution containing Buffer A or Buffer A− plus [^14C]-AMG (10 μCi/mL), 100 μL/well. The cell culture was conducted at 37° C. for 1 h. Then, 100 μL of ice pre-cooled buffering solution (Buffer D) was added to terminate the assay. The plate was washed for 5 times. Then 100 mM NaOH solution was added, 20 μL/well, and the centrifugation at 600 rpm was conducted for 5 mins. Then Microscint 40 solution was added, 80 μl/well, and the centrifugation at 600 rpm was conducted for 5 mins. Finally, the radioactivity of [^14C]-AMG was detected with MicroBeta Trilux (purchased from PerkinElmer Co. Ltd.) according to the scintillation counting method, and the half-inhibition concentration IC50 was calculated.
(§6) The above assays were entrusted to Shanghai ChemPartner Co. Ltd.

human SGLT2 = target: T2, human SGLT2 (Homo sapiens, UniProt P31639); assay: Inhibition of sodium dependent [14C]-AMG uptake in CHO cells stably expressing human SGLT2; type: cell-based; settings: for IC50: CHO cells expressing human SGLT2, [14C]-AMG uptake; for Selectivity: SGLT1 IC50 versus SGLT2 IC50
T2 sequence (P31639 1-672): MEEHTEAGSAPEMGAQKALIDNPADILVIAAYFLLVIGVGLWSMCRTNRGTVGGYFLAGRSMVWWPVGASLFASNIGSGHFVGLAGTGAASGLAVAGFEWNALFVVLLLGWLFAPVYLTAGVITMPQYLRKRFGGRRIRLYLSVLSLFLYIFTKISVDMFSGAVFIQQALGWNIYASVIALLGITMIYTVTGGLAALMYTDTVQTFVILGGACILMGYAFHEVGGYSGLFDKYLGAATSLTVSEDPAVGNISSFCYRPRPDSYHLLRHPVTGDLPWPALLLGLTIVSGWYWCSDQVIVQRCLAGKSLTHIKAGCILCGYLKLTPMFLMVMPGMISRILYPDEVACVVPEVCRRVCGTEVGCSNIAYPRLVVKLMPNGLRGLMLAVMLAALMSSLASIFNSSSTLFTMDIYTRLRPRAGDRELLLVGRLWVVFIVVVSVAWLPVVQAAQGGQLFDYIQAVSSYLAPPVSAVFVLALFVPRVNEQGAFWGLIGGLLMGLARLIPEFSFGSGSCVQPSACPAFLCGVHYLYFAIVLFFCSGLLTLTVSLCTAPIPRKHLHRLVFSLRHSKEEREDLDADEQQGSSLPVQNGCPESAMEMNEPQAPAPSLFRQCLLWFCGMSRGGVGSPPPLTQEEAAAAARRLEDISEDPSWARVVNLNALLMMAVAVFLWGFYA
Description: as §1, §2, §3, §4, §5, §6

| AUC(0-t) ([1]; IV, 2 mg/kg) [ng·h/mL] | AUC(0-inf) ([1]; IV, 2 mg/kg) [ng·h/mL] | half-life ([1]; IV, 2 mg/kg) [h] | bioavailability [1] [%] | AUC(0-t) ([1]; PO, 5 mg/kg) [ng·h/mL] | AUC(0-inf) ([1]; PO, 5 mg/kg) [ng·h/mL] | half-life ([1]; PO, 5 mg/kg) [h] | IC50 (human SGLT1) [nM] | IC50 (human SGLT2) [nM] | Selectivity (human SGLT2) | Structure (SMILES) | Urine volume [2] [mL] | Urine glucose mass [2] [mg/200 g] |
| --- | --- | --- | --- | --- | --- | --- | --- | --- | --- | --- | --- | --- |
| 1090 ± 138 | 1100 ± 142 | 0.7 ± 0.07 | 16.5 | 426 ± 116 | 457 ± 114 | 1.33 ± 0.33 |  |  |  | OC[C@H]1O[C@@H](c2ccc(Cl)c(Cc3ccc(O[C@H]4CCOC4)cc3)c2)[C@H](O)[C@@H](O)[C@@H]1O [BI-10773, reference compound] | 16.63 | 866.67 |
| 12400 ± 732 | 13500 ± 451 | 6.81 ± 0.74 | 87.2 | 26300 ± 1790 | 29500 ± 2720 | 7.33 ± 0.96 | 2400 |  |  | OC[C@H]1OC(c2ccc(Cl)c(Cc3ccc(OC4CC5CC5C4)cc3)c2)[C@H](O)[C@@H](O)[C@@H]1O (some centres unmarked) [Compound 4] | 18.50 | 1197.79 |
| 972 ± 164 | 984 ± 167 | 0.88 ± 0.21 | 18.9 ± 6.52 | 430 ± 166 | 464 ± 160 | 1.77 ± 0.47 | 1890 | 3.16 | 596 | OC[C@H]1OC(c2ccc(Cl)c(Cc3ccc(OC4C5COCC54)cc3)c2)[C@H](O)[C@@H](O)[C@@H]1O (some centres unmarked) [Compound 10] | 16.25 | 972.99 |
| 6950 ± 100 | 7010 ± 148 | 3.75 ± 0.6 | 35.9 ± 7.78 | 6220 ± 1350 | 6290 ± 1360 | 3.36 ± 0.46 | 29100 | 3.99 | 73 | OC[C@H]1OC(c2ccc(Cl)c(Cc3ccc(C4CCC5(CCC5)CC4)cc3)c2)[C@H](O)[C@@H](O)[C@@H]1O (some centres unmarked) [Compound 13] |  |  |
